This note sets out measurements from ChEMBL document CHEMBL1149299, “Hemolytic effects of water-soluble fullerene derivatives” (J Med Chem, 2004).

SMILES strings stand for the structures.

Data set [1] in a line: Cytotoxicity against […] HepG2 cells by MTT assay. Format: cell-based. To be noted: read-out: LD50 (the source's name). Background: Tetrazolium assays rely on reduction of a dye to a coloured formazan, in cell work by metabolically active cells.
Data set [2] can be described thus: Cytotoxicity against pig LLC-PK1 cells by MTT assay. Format: cell-based, Sus scrofa. To be noted: read-out: LD50 (the source's name).
The nature of data set [3]: Cytotoxicity against human MCF7 by MTT assay. The class given is cell-based. To be noted: MCF7 cells, read-out: LD50 (the source's name).
For data set [4], the system named is Erythrocyte. Put plainly: Hemolytic activity in human RBC at 30 uM. Format: functional.
Data set [5] deals with Erythrocyte. Put plainly: Hemolytic activity in human RBC at 80 uM. The class given is functional.

As to `C[N+]1(CCOCCOCCN)CCCC1`, the CC50 in data set [1], in data set [2] and in data set [3] was greater than 80 µM in each case.

With `CCCCCCCCCCCCCCCCCC(=O)NCCOCCOCCN.Cl`, the CC50 in data set [1], in data set [2] and in data set [3] was greater than 80 µM each time. Also, the Activity with Erythrocyte [4] worked out at 34%; in the data set on Erythrocyte [5], 53%.
